We go through 14 compounds from PubChem BioAssay (NCI).

The structures appear in SMILES notation.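 Grown in 96-well plates, cells were treated for 48 hours with each compound at five concentrations. Insufficient inhibition: endpoint recorded as highest concentration tested. Abbreviation: GI50, concentration required for 50% inhibition of growth. Definition used: TGI = concentration required for complete inhibition of growth.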

Holding throughout (experiment): NCI anticancer screen, dose series, 48 h
For experiment [1], the system named is SK-MEL-28 melanoma.
For experiment [2], the system named is U251 CNS.
Experiment [3] deals with IGROV1 ovarian.
In experiment [4] the test system is K-562 leukemia.
In experiment [5] the test system is OVCAR-8 ovarian.
Experiment [6] relates to NCI/ADR-RES ovarian.
Experiment [7] has as its system 786-0 renal.
Experiment [8] relates to LOX IMVI melanoma.
The subject of experiment [9] is UO-31 renal.
In experiment [10] the test system is RXF 393 renal.

Regarding `COC(=O)C1(Cc2ccc3c(c2)CCC3)Cc2ccccc2C1`, the TGI was > 100 µM in experiment [1]; > 100 µM in [2]; > 100 µM in experiment [3]; 51.3 µM in experiment [4]; > 100 µM in experiment [5]; > 100 µM in experiment [6]. Also, the TGI in [7], in experiment [8] and in experiment [9] was > 100 µM throughout.
With `CN(C)CCNC(=O)c1cccc2nc(-c3ccccc3)oc12`, the TGI in experiment [1], in experiment [2], in experiment [3], in experiment [4], in experiment [10] and in experiment [5] was > 100 µM each time. Further, the TGI was 99.6 µM in experiment [6], > 71.8 µM in experiment [8] and 45.1 µM in experiment [9].
On to `COc1ccc(CN2C3CC2CN(c2ccc(-c4cc(OCC(C)(C)O)cn5ncc(C#N)c45)cn2)C3)cn1`, for which the GI50 in experiment [1] is > 100 µM; in experiment [2], 4.55 µM; in experiment [3], 4.17 µM; in experiment [4], > 100 µM; in experiment [10] it was 2.18 µM; in [5], 13.2 µM. Besides, the GI50 in [6] is 28.7 µM; in [8], 15.1 µM; in [9], 7.32 µM. In addition, the TGI in experiment [1] was > 100 µM; in experiment [2], > 100 µM; in experiment [3] it was > 100 µM; in experiment [4], > 100 µM; in experiment [10] it was 9.45 µM; in [5], > 100 µM. Besides, the TGI in experiment [6], in [8] and in experiment [9] was > 100 µM each time.
Take `CO[C@@H]1O[C@H](C(=O)c2ccccc2)[C@H]2OC(C)(C)O[C@@H]12`: the TGI in experiment [2], in experiment [3], in [4], in experiment [10], in experiment [5] and in experiment [6] was > 100 µM in each case. The TGI in [7], in [8] and in experiment [9] was > 100 µM each time.
With `O=C(C(Cl)=C(N1CCOCC1)N1CCOCC1)C(Cl)Cl`, the TGI in experiment [1], in [3], in [4], in experiment [10], in [5] and in experiment [6] was > 100 µM in each case. For the same compound, the TGI in [7], in experiment [8] and in experiment [9] was > 100 µM in each case.
Take `C[C@H]1SC(c2ccc(Cl)cc2Cl)N(NC(=O)c2ccncc2)C1=O` (some centres undefined): the TGI in [1] is > 100 µM; in experiment [2], > 100 µM; in [3], > 100 µM; in experiment [4] it was > 100 µM; in [10], 61.2 µM; in [5] it was > 100 µM. Besides, the TGI is > 100 µM in experiment [6] and 96.1 µM in experiment [9].
For the compound `CCON1CC(C(=O)OC)=C(O)C1=O`, the TGI in [1], in [2], in [3], in experiment [4], in experiment [10] and in experiment [5] was > 100 µM throughout. Moreover, the TGI in experiment [6], in experiment [7] and in [9] was > 100 µM each time.
In the case of `NC(=O)N/N=C1\CC2C3CC4C2C4C13` (centres undefined), the TGI in experiment [1], in experiment [2], in experiment [3], in [4], in experiment [5] and in experiment [6] was > 100 µM throughout. Further, the TGI in experiment [7], in experiment [8] and in experiment [9] was > 100 µM throughout.
Take `CC1(C)[C@H]2CC[C@@]13C(=O)N1C(=O)O[C@@H]([C@H]1Cl)C(Cl)(COCc1ccccc1)C(=O)OCCO[C@H]3C2` (some centres undefined): the TGI in experiment [1], in [2], in experiment [3], in experiment [4], in [5] and in experiment [6] was > 100 µM each time. The TGI in [7], in experiment [8] and in experiment [9] was > 100 µM in each case.
Consider `COc1c(O)c2c(=O)cc(OC)c3c4c(OC)cc(=O)c5c(O)c(OC)c6c(c(c1C(C(C)O)C6C(C)O)c23)c54` (centres undefined), for which the TGI stood at 11.3 µM in [2]; 2.3 µM in experiment [3]; 1.66 µM in [4]; 1.76 µM in [10]; 2.48 µM in [5]; 3.66 µM in [6]. Moreover, the TGI is 4.78 µM in experiment [7], 3.08 µM in experiment [8] and 2.3 µM in experiment [9].
On to `CCOC(=O)/C(O)=C1\C(=O)N(C)C(=O)C1c1cccc(OC)c1` (centres undefined), for which the TGI in experiment [1], in [2], in experiment [3], in [4], in [10] and in experiment [5] was > 100 µM each time. The TGI in [6], in experiment [8] and in [9] was > 100 µM in each case.
Turning to `CCOC(=O)c1nnsc1NN`, the TGI in [1], in experiment [2], in experiment [3], in [10], in experiment [5] and in experiment [6] was > 100 µM in each case. For the same compound, the TGI in [7], in experiment [8] and in experiment [9] was > 100 µM each time.
Consider `CNC(=O)CCCNC(=O)CCCC(=O)N(C)C`, for which the TGI in experiment [1], in experiment [2], in experiment [3], in [4], in experiment [5] and in [6] was > 100 µM each time. In addition, the TGI in experiment [7], in [8] and in experiment [9] was > 100 µM throughout.
`O=C1CSC2=NC3=C(COC/C3=C\c3ccc(Br)cc3)C(c3ccc(Br)cc3)N12` (centres undefined): the TGI in experiment [2], in experiment [3], in [4], in experiment [10], in experiment [5] and in experiment [6] was > 100 µM throughout. The TGI in [7], in experiment [8] and in experiment [9] was > 100 µM throughout.
